Series [1] can be described thus: Pharmacokinetic test, intragastric administration to Beagle dogs, plasma LC-MS/MS. In kind it is in vivo. Particulars: for Cmax / AUC(0-t) / AUC(0-inf) / Tmax / bioavailability: both sexes, dog, plasma; for Cmax / AUC(0-t) / AUC(0-inf) / Tmax: po; for Cmax / AUC(0-t) / AUC(0-inf) / Tmax / t1/2z: suspension in 0.5% CMC-Na, citrate crystal 5.52 mg/kg, compound of Formula I 4 mg/kg (equimolar as base); for AUC(0-t): 0-36 h, trapezoidal; for AUC(0-inf): extrapolated Ct/λ; for Tmax: mean ± spread; for bioavailability: beagle, oral, crystal of citrate salt versus compound of Formula I. From the text: In this study, LC-MS/MS was used to determine the plasma concentrations of drugs after the compound of Formula I and crystals of citrate salt thereof were intragastrically administered to Beagle dogs, and the effects of the crystals of citrate salt of the compound of Forumla I on the absorption behavior were observed.
The instrumentation system included the LC-10ADvp (Shimadzu, Japan) LC system and the TSQ Quantum Access triple quadrupole tandem mass spectrometer equipped with an electrospray ionization (ESI) source and Xcalibur 2.0.7 data processing system (Thermo Scientific, USA); the operating software was DAS2.1.1; other instruments were One hundred thousandth electronic balance (Mettler Toledo); Centrifugal rotary concentrator (LABCONCO, USA); High-speed refrigerated centrifuge (Model 5430-R, Eppendorf); Refrigerator (Model BCD-281E, Electrolux); Low temperature refrigerator (Model FORMA 700 SERIES, Thermo […]), etc.
Column: Thermo C18 LC column (size: 150 L×2.1 mm, 5 μm); column temperature: 40° C.; Mobile phase A: aqueous phase (containing 5 mM ammonium acetate and 0.1% formic acid); mobile phase B: methanol; gradient elution: 0.01 min, 20%; 0.5 min, 20%; 1.5 min, 80%; 4.5 min, 80%, 5 min, 20%, 6 min, stop (phase B). The flow rate was 0.3 mL/min. Benazeprilat was used as the internal standard for measurement.
The measurement was carried out by LC-MS/MS. The ion source was an ESI source and detection was performed in the positive ionization mode; the spray voltage was 3.8 kV; the heated capillary temperature was 350° C.; the pressure of the sheath gas (N2) was 35 Arb; the pressure of the auxiliary gas (N2) was 15 Arb; and voltages for collision induced dissociation (CID) were 25 eV and 25 eV (internal standard), respectively. The scanning mode was selective reaction monitoring (SRM), and the ion reactions for quantitative analysis were m/z 506.3-315.2 (the compound of Formula I) and m/z 397-351 (internal standard), respectively.
Six adult healthy beagle dogs, half male and half female, each weighing 9-11 kg, were randomly divided into two groups, and cross-administrated with the compound of Formula I and a crystal of citrate salt thereof.
After fasted for 12 h, the dogs were intragastrically administered with the crystal of citrate salt of the compound of Formula I and with the compound of Formula I (both were formulated with 0.5% CMC-Na as a suspension) at 5.52 mg/kg and 4 mg/kg (equimolar amounts based on the base form), respectively. A blank blood sample was taken before administration; and venous blood samples, about 1.0 ml each, were taken 0.5, 1, 2, 3, 4, 6, 8, 12, 14, 24, 36 hours after administration, placed in test tubes containing heparin, and centrifuged. The plasma fractions were isolated and stored at −80° C. After the washout period (7 days), the two groups of animals were each cross-administrated with the corresponding second drug, and the concentration of compound of Formula I in plasma samples was measured. The plasma concentration-time data for each test animal were input into a computer and the relevant pharmacokinetic parameters were calculated using the pharmacokinetic professional software DAS2.1.1, wherein Cmax and Tmax were measured values. AUC(0-t) and AUC(0-∞) are the area under the plasma concentration-time curve for the period of measurement and the total area under the plasma concentration-time curve, respectively. The AUC(0-t) was estimated by the trapezoidal method from the measured plasma concentrations, and the AUC(0-∞) was calculated from the AUC(0-t) plus the remaining area in the range t→∞, which can be calculated by the following equation: AUC(t-∞)=Ct/λ
In the above equation, Ct is the last plasma concentration measured, and λ is the elimination rate constant in the terminal portion of the plasma concentration.

The nature of series [2]: Hygroscopicity test (Chinese Pharmacopoeia 2005, Appendix XIX J). In kind it is physicochemical.
The nature of series [3]: Stability test (Chinese Pharmacopoeia 2010, Appendix XIX C), total impurities by HPLC. In kind it is physicochemical. Particulars: for Total impurities: citrate salt. As for the experimental part: Stability was examined for 10 days under the conditions of 40° C., 60° C., 75% relative humidity (25° C.), 92.5% relative humidity (25° C.), or light illumination (5000 lx±500 lx), respectively. Samples were taken on day 0 and day 10, and the total impurities thereof were assayed by HPLC.
Column: Waters XBridge C18 (5 μm, 4.6×150 mm)
Mobile phase A: 0.01 M aqueous ammonium formate, to which 0.1% formic acid was added, and triethylamine was also added to adjust the pH to 7.4
Mobile phase B: acetonitrile
Linear gradient elution, with the following procedure: […]
Detection wavelength: diode array detector (280 nm)
Column temperature: 40° C.
Solvent: acetonitrile-water (1:1)
Preparation of the test solution: the solution was taken and accurately weighed, dissolved in a solvent and diluted to a solution at 1 mg per 1 mL, as the test solution.

[4] abbreviates: 10 days at 40° C., 60° C., 75% RH, 92.5% RH or light.

Read-outs that look alike come from different tables or passages of the source.

For the molecule `COc1cc(N2CCNC[C@@H]2C)ncc1-c1cnc(N)c(O[C@H](C)c2c(Cl)ccc(F)c2Cl)c1` [Example 1, 5-((R)-1-(2,6-dichloro-3-fluorophenyl)ethoxy)-4′-methoxy-6′-((S)-2-methylpiperazin-1-yl)-3,3′-bipyridin-6-amine], in series [1], the Cmax came to 50 ± 20.8 ng/mL, the area under the curve AUC(0-t) was 502 ± 176 ng·h/mL, the AUC(0-inf) is 517 ± 181 ng·h/mL and the time of peak concentration (Tmax) came out at 3.17 ± 1.6 h. In addition, the t1/2z in series [1] came to 6.71 ± 2.55 h.

Regarding `COc1cc(N2CCNC[C@@H]2C)ncc1-c1cnc(N)c(O[C@H](C)c2c(Cl)ccc(F)c2Cl)c1.O=C(O)CC(O)(CC(=O)O)C(=O)O` [Example 2, 5-((R)-1-(2,6-dichloro-3-fluorophenyl)ethoxy)-4′-methoxy-6′-((S)-2-methylpiperazin-1-yl)-3,3′-bipyridin-6-amine citrate salt], in series [2], the “Hygroscopic weight gain compared to the compound of Formula I and the other salts thereof (in words)” value is “obviously lower”. In series [1], the “Degree and rate of absorption compared to the compound of Formula I (in words)” value is “better degree and rate of absorption”; the Cmax came out at 63 ± 29.2 ng/mL; the AUC(0-t) was 570 ± 343 ng·h/mL; the AUC(0-inf) is 586 ± 353 ng·h/mL. Moreover, in series [1], the Tmax is 2.33 ± 1.03 h and the t1/2z came to 5.94 ± 1.59 h. Besides, the bioavailability in series [1] (from AUC(0-t), read-out: Relative bioavailability F1) was 114 ± 68.3%. Further, in series [1] (from AUC(0-∞), read-out: Relative bioavailability F2), the bioavailability turned out to be 113 ± 68.3%. The Total impurities in series [3] (40° C., 10 days, listed as crystal form A of citrate salt of the compound of Formula I) is recorded as 0.77%. Also, the Total impurities in series [3] (60° C., 10 days, listed as crystal form A of citrate salt of the compound of Formula I) is given as 0.89%. Besides, in series [3] (setting [4]), the “Stability (in words)” value is recorded as “good stability” and the “Stability compared between crystal forms (in words)” value is “better than that of crystal form B”. Also, in series [3] (Initial state, 0 day, listed as crystal form A of citrate salt of the compound of Formula I), the Total impurities came out at 0.76%. The Total impurities in series [3] (Light illumination (5000 lx±500 lx), 10 days, listed as crystal form A of citrate salt of the compound of Formula I) was found to be 0.78%. For the same molecule, the Total impurities in series [3] (Relative humidity 75%, 25° C., 10 days, listed as crystal form A of citrate salt of the compound of Formula I) was 0.79%. For the same molecule, in series [3] (Relative humidity 92.5%, 25° C., 10 days, listed as crystal form A of citrate salt of the compound of Formula I), the Total impurities was 0.77%.

Regarding `COc1cc(N2CCNC[C@@H]2C)ncc1-c1cnc(N)c(O[C@H](C)c2c(Cl)ccc(F)c2Cl)c1.O=C(O)CC(O)(CC(=O)O)C(=O)O` [Example 8, 5-((R)-1-(2,6-dichloro-3-fluorophenyl)ethoxy)-4′-methoxy-6′-((S)-2-methylpiperazin-1-yl)-3,3′-bipyridin-6-amine citrate salt], in series [2], the “Hygroscopic weight gain compared to the compound of Formula I and the other salts thereof (in words)” value is on record as “obviously lower”. Besides, the Total impurities worked out at 0.96% in series [3] (40° C., 10 days, listed as crystal form B of citrate salt of the compound of Formula I); 1.19% in series [3] (60° C., 10 days, listed as crystal form B of citrate salt of the compound of Formula I); 0.89% in series [3] (Initial state, 0 day, listed as crystal form B of citrate salt of the compound of Formula I); 0.99% in series [3] (Light illumination (5000 lx±500 lx), 10 days, listed as crystal form B of citrate salt of the compound of Formula I); 0.94% in series [3] (Relative humidity 75%, 25° C., 10 days, listed as crystal form B of citrate salt of the compound of Formula I); 0.95% in series [3] (Relative humidity 92.5%, 25° C., 10 days, listed as crystal form B of citrate salt of the compound of Formula I).

Take `COc1cc(N2CCNC[C@@H]2C)ncc1-c1cnc(N)c(O[C@H](C)c2c(Cl)ccc(F)c2Cl)c1.O=C(O)CC(O)(CC(=O)O)C(=O)O` [Example 12, 5-((R)-1-(2,6-dichloro-3-fluorophenyl)ethoxy)-4′-methoxy-6′-((S)-2-methylpiperazin-1-yl)-3,3′-bipyridin-6-amine citrate salt]: in series [2], the “Hygroscopic weight gain compared to the compound of Formula I and the other salts thereof (in words)” value is on record as “obviously lower”.

The term Cmax denotes the maximum level reached in the sampled fluid or tissue. What is called AUC(0-t) is the area under the concentration-time curve up to a stated or last time point. Read a high AUC(0-t) as more exposure. Usually AUC(0-inf) stands for total exposure, with the tail of the curve extrapolated. The term Tmax denotes the time at which the peak concentration occurs.
